Consider 2 compounds from patent publication US7192572B2, “Compound delivery systems” (Conopco, Inc., priority 2002, dated 2007).

The test in a line: cooling effect perceived on ingestion of the example compositions (microemulsion tea beverage, water ice, toothpaste). The format is in vivo, human. To be noted: ingestion in the form of the compositions of Examples 1-3, relative to the same amount of the cooling active alone.

SMILES strings stand for the structures.

On to `COc1ccccc1N1CC=C(c2cccc([N+](=O)[O-])c2)NC1=O` [1-(2′-methoxyphenyl)-4-(3″-nitrophenyl)-1,2,3,6-tetrahydropyrimidine-2-one], for which the cooling effect perceived result is “prolonged the cooling effect perceived”.
The same measure for `CC1CCC(C(C)C)C(O)C1` (centres unmarked) [menthol, 2-isopropyl-5-methyl-cyclohexanol]: “prolonged the cooling effect perceived”.
